Laboratory results taken from ChEMBL document CHEMBL3044807, “Synthesis and biological evaluation of new ozonides with improved plant growth regulatory activity” (2009).

Key:
Type in all cases: functional
Cucumis sativus [1] = test: Phytotoxic activity against Cucumis sativus (cucumber) assessed as weight of aerial parts at 5.0 x 10^-4 mol/l measured 15 days after seed sowing under greenhouse trials (reference value: 47.0 mg)
Sorghum bicolor [2] = test: Phytotoxic activity against Sorghum bicolor seedlings assessed as radicle length at 5x10'-4 mol/l at 28 +/-1 degC after 48 hr by acid-washed sand based radicle elongation assay (reference value: 5.1 cm)
Ipomoea grandifolia [3] = test: Phytotoxic activity against Ipomoea grandifolia assessed as root growth inhibition at 5.0 x 10^-4 mol/l measured 21 days after seed sowing under greenhouse trials (reference value: 0.0%); conditions: 504 h
Cucumis sativus [4] = test: Phytotoxic activity against Cucumis sativus (cucumber) seedlings assessed as radicle length at 5x10'-4 mol/l at 28 +/-1 degC after 48 hr by acid-washed sand based radicle elongation assay (reference value: 4.8 cm)
Cucumis sativus [5] = test: Phytotoxic activity against Cucumis sativus (cucumber) assessed as root growth inhibition at 5.0 x 10^-4 mol/l measured 15 days after seed sowing under greenhouse trials (reference value: 0.0%); conditions: 360 h
Urochloa decumbens [6] = test: Phytotoxic activity against Urochloa decumbens assessed as weight of root at 5.0 x 10^-4 mol/l measured 21 days after seed sowing under greenhouse trials (reference value: 21.2 mg)
Cucumis sativus [7] = test: Phytotoxic activity against Cucumis sativus (cucumber) seedlings assessed as germination at 5x10'-4 mol/l at 28 +/-1 degC after 48 hr by acid-washed sand based radicle elongation assay (reference value: 100%)
Sorghum bicolor [8] = test: Phytotoxic activity against Sorghum bicolor assessed as aerial part growth inhibition at 5.0 x 10^-4 mol/l measured 15 days after seed sowing under greenhouse trials (reference value: 0.0%); conditions: 360 h
Cucumis sativus [9] = test: Phytotoxic activity against Cucumis sativus (cucumber) seedlings assessed as inhibition of radicle growth at 5x10'-4 mol/l at 28 +/-1 degC after 48 hr by acid-washed sand based radicle elongation assay (reference value: 0.0%)
Sorghum bicolor [10] = test: Phytotoxic activity against Sorghum bicolor assessed as weight of aerial parts at 5.0 x 10^-4 mol/l measured 15 days after seed sowing under greenhouse trials (reference value: 19.0 mg)
Urochloa decumbens [11] = test: Phytotoxic activity against Urochloa decumbens assessed as root growth inhibition at 5.0 x 10^-4 mol/l measured 21 days after seed sowing under greenhouse trials (reference value: 0.0%); conditions: 504 h
Ipomoea grandifolia [12] = test: Phytotoxic activity against Ipomoea grandifolia assessed as weight of root at 5.0 x 10^-4 mol/l measured 21 days after seed sowing under greenhouse trials (reference value: 18.4 mg)
Urochloa decumbens [13] = test: Phytotoxic activity against Urochloa decumbens assessed as aerial part growth inhibition at 5.0 x 10^-4 mol/l measured 21 days after seed sowing under greenhouse trials (reference value: 0.0%); conditions: 504 h
Urochloa decumbens [14] = test: Phytotoxic activity against Urochloa decumbens assessed as weight of aerial parts at 5.0 x 10^-4 mol/l measured 21 days after seed sowing under greenhouse trials (reference value: 22.0 mg)
Sorghum bicolor [15] = test: Phytotoxic activity against Sorghum bicolor assessed as root growth inhibition at 5.0 x 10^-4 mol/l measured 15 days after seed sowing under greenhouse trials (reference value: 0.0%); conditions: 360 h
Sorghum bicolor [16] = test: Phytotoxic activity against Sorghum bicolor assessed as weight of roots at 5.0 x 10^-4 mol/l measured 15 days after seed sowing under greenhouse trials (reference value: 14.0 mg)
Sorghum bicolor [17] = test: Phytotoxic activity against Sorghum bicolor seedlings assessed as germination at 5x10'-4 mol/l at 28 +/-1 degC after 48 hr by acid-washed sand based radicle elongation assay (reference value: 100%)
Cucumis sativus [18] = test: Phytotoxic activity against Cucumis sativus (cucumber) assessed as aerial part growth inhibition at 5.0 x 10^-4 mol/l measured 15 days after seed sowing under greenhouse trials (reference value: 0.0%); conditions: 360 h
Cucumis sativus [19] = test: Phytotoxic activity against Cucumis sativus (cucumber) assessed as weight of roots at 5.0 x 10^-4 mol/l measured 15 days after seed sowing under greenhouse trials (reference value: 31.0 mg)
Ipomoea grandifolia [20] = test: Phytotoxic activity against Ipomoea grandifolia assessed as aerial part growth inhibition at 5.0 x 10^-4 mol/l measured 21 days after seed sowing under greenhouse trials (reference value: 0.0%); conditions: 504 h
Ipomoea grandifolia [21] = test: Phytotoxic activity against Ipomoea grandifolia assessed as weight of aerial parts at 5.0 x 10^-4 mol/l measured 21 days after seed sowing under greenhouse trials (reference value: 17.8 mg)
Sorghum bicolor [22] = test: Phytotoxic activity against Sorghum bicolor seedlings assessed as inhibition of radicle growth at 5x10'-4 mol/l at 28 +/-1 degC after 48 hr by acid-washed sand based radicle elongation assay (reference value: 0.0%)

CCC12OC(C3OOC1O3)C1CCCCC2C1=O (mixture of isomers)
Activity (Cucumis sativus [1]): 24.4 mg
Activity (Sorghum bicolor [2]): 2.4 cm
inhibition at 500 µM (Ipomoea grandifolia [3]): 43%
Activity (Cucumis sativus [4]): 2.1 cm
inhibition at 500 µM (Cucumis sativus [5]): 75.2%
Activity (Urochloa decumbens [6]): 4.6 mg
germination % at 500 µM (Cucumis sativus [7]): 96%
inhibition at 500 µM (Sorghum bicolor [8]): 45.4%
inhibition at 500 µM (Cucumis sativus [9]): 57.2%
Activity (Sorghum bicolor [10]): 10.3 mg
inhibition at 500 µM (Urochloa decumbens [11]): 77.9%
Activity (Ipomoea grandifolia [12]): 9.1 mg
inhibition at 500 µM (Urochloa decumbens [13]): 74.4%
Activity (Urochloa decumbens [14]): 5.7 mg
inhibition at 500 µM (Sorghum bicolor [15]): 27.1%
Activity (Sorghum bicolor [16]): 10.2 mg
germination % at 500 µM (Sorghum bicolor [17]): 100%
inhibition at 500 µM (Cucumis sativus [18]): 48%
Activity (Cucumis sativus [19]): 7.7 mg
inhibition at 500 µM (Ipomoea grandifolia [20]): 47.7%
Activity (Ipomoea grandifolia [21]): 9.4 mg
inhibition at 500 µM (Sorghum bicolor [22]): 52.5%

O=C1C2CCCCC1C1OC2C2OOC1O2
Activity (Cucumis sativus [1]): 34.1 mg
Activity (Sorghum bicolor [2]): 2.1 cm
inhibition at 500 µM (Ipomoea grandifolia [3]): 53.6%
Activity (Cucumis sativus [4]): 1.5 cm
inhibition at 500 µM (Cucumis sativus [5]): 77.8%
Activity (Urochloa decumbens [6]): 8.3 mg
germination % at 500 µM (Cucumis sativus [7]): 100%
inhibition at 500 µM (Sorghum bicolor [8]): 45.1%
inhibition at 500 µM (Cucumis sativus [9]): 68.5%
Activity (Sorghum bicolor [10]): 10.4 mg
inhibition at 500 µM (Urochloa decumbens [11]): 60.2%
Activity (Ipomoea grandifolia [12]): 7.4 mg
inhibition at 500 µM (Urochloa decumbens [13]): 44.1%
Activity (Urochloa decumbens [14]): 12.3 mg
inhibition at 500 µM (Sorghum bicolor [15]): 26.4%
Activity (Sorghum bicolor [16]): 10.3 mg
germination % at 500 µM (Sorghum bicolor [17]): 96%
inhibition at 500 µM (Cucumis sativus [18]): 27.5%
Activity (Cucumis sativus [19]): 6.9 mg
inhibition at 500 µM (Ipomoea grandifolia [20]): 46.5%
Activity (Ipomoea grandifolia [21]): 9.6 mg
inhibition at 500 µM (Sorghum bicolor [22]): 59.7%

CC12OC(C)(C3OOC1O3)C1CCCCC2C1=O (mixture of isomers)
Activity (Cucumis sativus [1]): 26.4 mg
Activity (Sorghum bicolor [2]): 2.7 cm
inhibition at 500 µM (Ipomoea grandifolia [3]): 64.6%
Activity (Cucumis sativus [4]): 1.5 cm
inhibition at 500 µM (Cucumis sativus [5]): 79.7%
Activity (Urochloa decumbens [6]): 3.6 mg
germination % at 500 µM (Cucumis sativus [7]): 100%
inhibition at 500 µM (Sorghum bicolor [8]): 53.9%
inhibition at 500 µM (Cucumis sativus [9]): 69.1%
Activity (Sorghum bicolor [10]): 8.8 mg
inhibition at 500 µM (Urochloa decumbens [11]): 83%
Activity (Ipomoea grandifolia [12]): 5.7 mg
inhibition at 500 µM (Urochloa decumbens [13]): 79.7%
Activity (Urochloa decumbens [14]): 4.4 mg
inhibition at 500 µM (Sorghum bicolor [15]): 18.2%
Activity (Sorghum bicolor [16]): 11.5 mg
germination % at 500 µM (Sorghum bicolor [17]): 100%
inhibition at 500 µM (Cucumis sativus [18]): 43.8%
Activity (Cucumis sativus [19]): 6.3 mg
inhibition at 500 µM (Ipomoea grandifolia [20]): 65.4%
Activity (Ipomoea grandifolia [21]): 6.2 mg
inhibition at 500 µM (Sorghum bicolor [22]): 47.1%
